Laboratory results published in patent publication US11000033B2, “Ketone or oxime compound, and herbicide” (NISSAN CHEMICAL CORPORATION, priority 2014, dated 2021).

Assays:
Format in all cases: in vivo
transplanted rice plant = assay: Test Example 1: effect on crop, application before weed generation in submerged conditions (symbol a); details: application herbicide amount 320 g/ha
How it was run: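 Rice at 2.5 leaf stage transplanted into submerged soil (4 cm depth) sown with three weed species; herbicide applied before weed emergence.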

[1] = test system: Echinochloa crus-galli var. crus-galli; assay: Test Example 4: herbicidal effect by soil treatment (symbol H); details: application herbicide amount 320 g/ha
How it was run: (§1)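 Seeds were sown in sterilized diluvial soil, covered with about 1.5 cm of soil, and the soil surface was sprayed with a water-diluted emulsion of the compound at a predetermined rate. Plants grew in a greenhouse at 25° C. to 30° C.; effects were scored visually 3 weeks after application.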

rice = assay: Test Example 4: effect on crop by soil treatment (symbol b); details: application herbicide amount 320 g/ha
How it was run: (§2)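 Crop seed is sown in spots together with several weed species in a box of sterilized diluvial soil. It is covered by about 1.5 cm of soil and kept in a greenhouse held between 25° C. and 30° C.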

Monochoria vaginalis = assay: Test Example 2: herbicidal activity, application during weed generation in submerged conditions (symbol C); details: Table 23; application herbicide amount 320 g/ha; grade 0-5 by criteria of Test Example 1
How it was run: (§3)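 Seeds sown in flooded alluvial soil (4 cm water) were grown in a 25-30° C greenhouse. At the one- to two-leaf stage, diluted emulsion of compound was applied to the water surface at a predetermined rate. Effect was scored 3 weeks later.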

Abutilon theophrasti = assay: Test Example 4: herbicidal effect by soil treatment (symbol M); details: application herbicide amount 320 g/ha
How it was run: as §1

rapeseed = assay: Test Example 5: effect on crop by foliage application, plastic box (symbol g); details: 320 g/ha, 3 weeks after application
How it was run: (§4)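 Crop and weed seeds sown in spots in sterilized diluvial soil in plastic boxes and covered with about 1.5 cm soil. Plants raised in a greenhouse at 25° C. to 30° C. for foliar application.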

soybean [2] = assay: Test Example 5: effect on crop by foliage application, plastic box (symbol d); details: 320 g/ha, 3 weeks after application
How it was run: as §4

Digitaria ciliaris = assay: Test Example 5: herbicidal effect by foliage application, plastic box (symbol F); details: 320 g/ha, 3 weeks after application
How it was run: (§5)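 Greenhouse foliar test: seedlings at 14 days, grown 25° C. to 30° C. in sterilized diluvial soil; compound applied as an aqueous dilution of an emulsion; response read 3 weeks after spraying.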

Amaranthus retroflexus = assay: Test Example 5: herbicidal effect by foliage application, plastic box (symbol N); details: 320 g/ha, 3 weeks after application
How it was run: as §5

Lolium multiflorum Lam. [3] = assay: Test Example 4: herbicidal effect by soil treatment (symbol K); details: application herbicide amount 320 g/ha
How it was run: as §1

soybean [4] = assay: Test Example 4: effect on crop by soil treatment (symbol d); details: application herbicide amount 320 g/ha
How it was run: as §2

Lolium multiflorum Lam. [5] = assay: Test Example 5: herbicidal effect by foliage application, plastic box (symbol K); details: 320 g/ha, 3 weeks after application
How it was run: as §5

Avena fatua = assay: Test Example 4: herbicidal effect by soil treatment (symbol I); details: application herbicide amount 320 g/ha
How it was run: as §1

wheat = assay: Test Example 4: effect on crop by soil treatment (symbol e); details: application herbicide amount 320 g/ha
How it was run: as §2

Scirpus juncoides = assay: Test Example 2: herbicidal activity, application during weed generation in submerged conditions (symbol B); details: Table 23; application herbicide amount 320 g/ha; grade 0-5 by criteria of Test Example 1
How it was run: as §3

beet = assay: Test Example 4: effect on crop by soil treatment (symbol f); details: application herbicide amount 320 g/ha
How it was run: as §2

[6] = test system: Echinochloa crus-galli var. crus-galli; assay: Test Example 5: herbicidal effect by foliage application, plastic box (symbol H); details: 320 g/ha, 3 weeks after application
How it was run: as §5

corn = assay: Test Example 5: effect on crop by foliage application, plastic box (symbol c); details: 320 g/ha, 3 weeks after application
How it was run: as §4

SMILES | Effect grade on crop, a: transplanted rice plant (transplanted rice plant) | H (Echinochloa crus-galli var. crus-galli) herbicidal effect grade [1] | b (directly sowed rice plant) effect on crop grade (rice) | Herbicidal effect grade, C: Monochoria vaginalis (Monochoria vaginalis) | M (Abutilon theophrasti) herbicidal effect grade (Abutilon theophrasti) | g: rapeseed, effect on crop grade (rapeseed) | d: soybean, effect on crop grade (soybean [2]) | F: Digitaria ciliaris, herbicidal effect grade (Digitaria ciliaris) | N: Amaranthus retroflexus, herbicidal effect grade (Amaranthus retroflexus) | K (Lolium multiflorum Lam.) herbicidal effect grade (Lolium multiflorum Lam. [3]) | d (soybean) effect on crop grade (soybean [4]) | K: Lolium multiflorum Lam., herbicidal effect grade (Lolium multiflorum Lam. [5]) | I (Avena fatua) herbicidal effect grade (Avena fatua) | e (wheat) effect on crop grade (wheat) | Herbicidal effect grade, B: Scirpus juncoides (Scirpus juncoides) | f (beet) effect on crop grade (beet) | H: Echinochloa crus-galli var. crus-galli, herbicidal effect grade [6] | c: corn, effect on crop grade (corn)
CON=C(C)CC1CC(OC(=O)C(C)(C)F)=C(c2c(C)cc(C)cc2C)C1=O (stereo not drawn) [1-039] | 5 (Herbicidal ratio of 90% or more (almost completely withered)) | 5 (Herbicidal ratio of 90% or more (almost completely withered)) | 5 (Herbicidal ratio of 90% or more (almost completely withered)) | 3 (Herbicidal ratio of 40% or higher and lower than 70%) | 5 (Herbicidal ratio of 90% or more (almost completely withered)) | 4 (Herbicidal ratio of 70% or higher and lower than 90%) | 4 (Herbicidal ratio of 70% or higher and lower than 90%) | 5 (Herbicidal ratio of 90% or more (almost completely withered)) | 4 (Herbicidal ratio of 70% or higher and lower than 90%) | 5 (Herbicidal ratio of 90% or more (almost completely withered)) | 0 (Herbicidal ratio of 5% or lower (almost no effect)) | 5 (Herbicidal ratio of 90% or more (almost completely withered)) | 1 (Herbicidal ratio of 5% or higher and lower than 20%) | 4 (Herbicidal ratio of 70% or higher and lower than 90%) | 5 (Herbicidal ratio of 90% or more (almost completely withered)) | 3 (Herbicidal ratio of 40% or higher and lower than 70%) | 5 (Herbicidal ratio of 90% or more (almost completely withered)) | 4 (Herbicidal ratio of 70% or higher and lower than 90%)
CC(CC1CC(O)=C(c2c(C)cc(C)cc2C)C1=O)=NOCC[Si](C)(C)C (stereo not drawn) [1-055] | 5 (Herbicidal ratio of 90% or more (almost completely withered)) | 4 (Herbicidal ratio of 70% or higher and lower than 90%) | 5 (Herbicidal ratio of 90% or more (almost completely withered)) | 0 (Herbicidal ratio of 5% or lower (almost no effect)) | 0 (Herbicidal ratio of 5% or lower (almost no effect)) | 3 (Herbicidal ratio of 40% or higher and lower than 70%) | 2 (Herbicidal ratio of 20% or higher and lower than 40%) | 3 (Herbicidal ratio of 40% or higher and lower than 70%) | 0 (Herbicidal ratio of 5% or lower (almost no effect)) | 5 (Herbicidal ratio of 90% or more (almost completely withered)) | 0 (Herbicidal ratio of 5% or lower (almost no effect)) | 5 (Herbicidal ratio of 90% or more (almost completely withered)) | 0 (Herbicidal ratio of 5% or lower (almost no effect)) | 0 (Herbicidal ratio of 5% or lower (almost no effect)) | 0 (Herbicidal ratio of 5% or lower (almost no effect)) | 0 (Herbicidal ratio of 5% or lower (almost no effect)) | 4 (Herbicidal ratio of 70% or higher and lower than 90%) | 3 (Herbicidal ratio of 40% or higher and lower than 70%)
CC(CC1CC(O)=C(c2c(C)cc(C)cc2C)C1=O)=NOCC=CCl (stereo not drawn) [1-056] | 5 (Herbicidal ratio of 90% or more (almost completely withered)) | 5 (Herbicidal ratio of 90% or more (almost completely withered)) | 5 (Herbicidal ratio of 90% or more (almost completely withered)) | 4 (Herbicidal ratio of 70% or higher and lower than 90%) | 4 (Herbicidal ratio of 70% or higher and lower than 90%) | 4 (Herbicidal ratio of 70% or higher and lower than 90%) | 4 (Herbicidal ratio of 70% or higher and lower than 90%) | 5 (Herbicidal ratio of 90% or more (almost completely withered)) | 2 (Herbicidal ratio of 20% or higher and lower than 40%) | 5 (Herbicidal ratio of 90% or more (almost completely withered)) | 0 (Herbicidal ratio of 5% or lower (almost no effect)) | 5 (Herbicidal ratio of 90% or more (almost completely withered)) | 3 (Herbicidal ratio of 40% or higher and lower than 70%) | 5 (Herbicidal ratio of 90% or more (almost completely withered)) | 5 (Herbicidal ratio of 90% or more (almost completely withered)) | 0 (Herbicidal ratio of 5% or lower (almost no effect)) | 5 (Herbicidal ratio of 90% or more (almost completely withered)) | 4 (Herbicidal ratio of 70% or higher and lower than 90%)
CC(CC1CC(O)=C(c2c(C)cc(C)cc2C)C1=O)=NO (stereo not drawn) [1-058] | 5 (Herbicidal ratio of 90% or more (almost completely withered)) | 5 (Herbicidal ratio of 90% or more (almost completely withered)) | 5 (Herbicidal ratio of 90% or more (almost completely withered)) | 0 (Herbicidal ratio of 5% or lower (almost no effect)) | 4 (Herbicidal ratio of 70% or higher and lower than 90%) | 4 (Herbicidal ratio of 70% or higher and lower than 90%) | 3 (Herbicidal ratio of 40% or higher and lower than 70%) | 5 (Herbicidal ratio of 90% or more (almost completely withered)) | 1 (Herbicidal ratio of 5% or higher and lower than 20%) | 5 (Herbicidal ratio of 90% or more (almost completely withered)) | 0 (Herbicidal ratio of 5% or lower (almost no effect)) | 5 (Herbicidal ratio of 90% or more (almost completely withered)) | 1 (Herbicidal ratio of 5% or higher and lower than 20%) | 0 (Herbicidal ratio of 5% or lower (almost no effect)) | 0 (Herbicidal ratio of 5% or lower (almost no effect)) | 0 (Herbicidal ratio of 5% or lower (almost no effect)) | 5 (Herbicidal ratio of 90% or more (almost completely withered)) | 4 (Herbicidal ratio of 70% or higher and lower than 90%)
